“And” between values parts separate entries of the source, which are not always exact repeats. Identical values can stand only once.
Experiments:
Test in all cases: radiometric filter-binding kinase assay, Kinase HotSpot
Details in all cases: compound 0.5 µM; ATP 10 µM
MST1R (human) = MST1R (human) (UniProt Q04912)
TAOK1 (human) = TAOK1 (human) (UniProt Q7L7X3)
AKT1 (human) = AKT1 (human) (UniProt P31749)
CDK6 CCND1 (human) = CDK6 CCND1 (human) (UniProt Q00534+P24385)
STK38 (human) = STK38 (human) (UniProt Q15208)
RPS6KA5 KD2 (human) = RPS6KA5 KD2 (human) (UniProt O75582)
PRKG1 (human) = PRKG1 (human) (UniProt Q13976)
MELK (human) = MELK (human) (UniProt Q14680)
PRKCB1 (human) = PRKCB1 (human) (UniProt P05771)
HIPK3 (human) = HIPK3 (human) (UniProt Q9H422)
AURKC (human) = AURKC (human) (UniProt Q9UQB9)
STK16 (human) = STK16 (human) (UniProt O75716)
MYO3B (human) = MYO3B (human) (UniProt Q8WXR4)
PAK6 (human) = PAK6 (human) (UniProt Q9NQU5)
TLK2 (human) = TLK2 (human) (UniProt Q86UE8)
PAK7 (human) = PAK7 (human) (UniProt Q9P286)
STK10 (human) = STK10 (human) (UniProt O94804)
ABL1 (human) = ABL1 (human) (UniProt P00519)
MAP3K8 (human) = MAP3K8 (human) (UniProt P41279)
CDK2 CCNE1 (human) = CDK2 CCNE1 (human) (UniProt P24941+P24864)
MAPKAPK2 (human) = MAPKAPK2 (human) (UniProt P49137)
MAPK3 (human) = MAPK3 (human) (UniProt P27361)
ULK3 (human) = ULK3 (human) (UniProt Q6PHR2)
PRKACG (human) = PRKACG (human) (UniProt P22612)
NUAK2 (human) = NUAK2 (human) (UniProt Q9H093)
ERBB2 (human) = ERBB2 (human) (UniProt P04626)
OXSR1 (human) = OXSR1 (human) (UniProt O95747)
PRKX (human) = PRKX (human) (UniProt P51817)
CLK2 (human) = CLK2 (human) (UniProt P49760)
STK33 (human) = STK33 (human) (UniProt Q9BYT3)
EPHA6 (human) = EPHA6 (human) (UniProt Q9UF33)
TYRO3 (human) = TYRO3 (human) (UniProt Q06418)
MAPK10 (human) = MAPK10 (human) (UniProt P53779)
EGFR (human) = EGFR (human) (UniProt P00533)
TNK2 (human) = TNK2 (human) (UniProt Q07912)
MAP2K2 (human) = MAP2K2 (human) (UniProt P36507)
SIK2 (human) = SIK2 (human) (UniProt Q9H0K1)
CSNK1A1 (human) = CSNK1A1 (human) (UniProt P48729)
CSNK2A2 (human) = CSNK2A2 (human) (UniProt P19784)
PDGFRB (human) = PDGFRB (human) (UniProt P09619)
Sequence of PDGFRB (human) (P09619 whole entry, looked up): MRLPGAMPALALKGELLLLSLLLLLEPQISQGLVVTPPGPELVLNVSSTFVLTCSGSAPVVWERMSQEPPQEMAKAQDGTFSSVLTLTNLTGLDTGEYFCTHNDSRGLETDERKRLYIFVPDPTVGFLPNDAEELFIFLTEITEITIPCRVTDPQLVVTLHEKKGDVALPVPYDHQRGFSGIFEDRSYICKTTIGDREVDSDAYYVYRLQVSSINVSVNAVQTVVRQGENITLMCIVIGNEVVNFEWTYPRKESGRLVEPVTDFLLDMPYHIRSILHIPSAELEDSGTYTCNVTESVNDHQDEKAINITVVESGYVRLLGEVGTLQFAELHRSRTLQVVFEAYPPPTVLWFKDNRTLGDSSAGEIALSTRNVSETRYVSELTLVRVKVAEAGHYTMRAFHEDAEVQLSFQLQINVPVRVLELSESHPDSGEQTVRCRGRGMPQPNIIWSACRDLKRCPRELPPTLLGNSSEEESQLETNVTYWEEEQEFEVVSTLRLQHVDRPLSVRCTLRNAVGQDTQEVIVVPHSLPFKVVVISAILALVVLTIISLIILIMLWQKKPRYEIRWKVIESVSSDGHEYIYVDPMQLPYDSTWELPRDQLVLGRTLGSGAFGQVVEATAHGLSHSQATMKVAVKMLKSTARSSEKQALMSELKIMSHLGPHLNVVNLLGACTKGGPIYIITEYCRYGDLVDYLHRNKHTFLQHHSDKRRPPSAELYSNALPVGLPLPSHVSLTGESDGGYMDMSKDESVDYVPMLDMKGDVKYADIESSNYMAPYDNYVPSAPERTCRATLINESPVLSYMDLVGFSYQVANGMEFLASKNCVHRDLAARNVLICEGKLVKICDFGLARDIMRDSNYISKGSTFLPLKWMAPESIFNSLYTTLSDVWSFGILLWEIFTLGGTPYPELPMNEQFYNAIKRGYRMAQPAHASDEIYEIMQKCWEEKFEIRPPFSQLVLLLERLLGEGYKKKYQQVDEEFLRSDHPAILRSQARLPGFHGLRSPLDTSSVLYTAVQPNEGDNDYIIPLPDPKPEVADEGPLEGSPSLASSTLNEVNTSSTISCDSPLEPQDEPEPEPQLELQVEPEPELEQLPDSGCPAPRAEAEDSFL

Sequence of STK38 (human) (Q15208 whole entry, looked up): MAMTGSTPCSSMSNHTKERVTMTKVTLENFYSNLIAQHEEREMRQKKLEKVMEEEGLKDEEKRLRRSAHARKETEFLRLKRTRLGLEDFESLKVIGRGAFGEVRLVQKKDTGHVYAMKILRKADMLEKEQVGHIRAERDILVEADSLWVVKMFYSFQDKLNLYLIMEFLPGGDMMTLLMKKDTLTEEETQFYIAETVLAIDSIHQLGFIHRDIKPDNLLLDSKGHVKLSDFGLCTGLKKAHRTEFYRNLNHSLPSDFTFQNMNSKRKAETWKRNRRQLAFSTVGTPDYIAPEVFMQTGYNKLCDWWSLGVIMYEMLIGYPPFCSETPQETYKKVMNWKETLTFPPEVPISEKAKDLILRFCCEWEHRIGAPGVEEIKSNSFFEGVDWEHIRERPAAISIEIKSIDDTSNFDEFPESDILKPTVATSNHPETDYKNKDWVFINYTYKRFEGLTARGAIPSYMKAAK
Sequence of ULK3 (human) (Q6PHR2 whole entry, looked up): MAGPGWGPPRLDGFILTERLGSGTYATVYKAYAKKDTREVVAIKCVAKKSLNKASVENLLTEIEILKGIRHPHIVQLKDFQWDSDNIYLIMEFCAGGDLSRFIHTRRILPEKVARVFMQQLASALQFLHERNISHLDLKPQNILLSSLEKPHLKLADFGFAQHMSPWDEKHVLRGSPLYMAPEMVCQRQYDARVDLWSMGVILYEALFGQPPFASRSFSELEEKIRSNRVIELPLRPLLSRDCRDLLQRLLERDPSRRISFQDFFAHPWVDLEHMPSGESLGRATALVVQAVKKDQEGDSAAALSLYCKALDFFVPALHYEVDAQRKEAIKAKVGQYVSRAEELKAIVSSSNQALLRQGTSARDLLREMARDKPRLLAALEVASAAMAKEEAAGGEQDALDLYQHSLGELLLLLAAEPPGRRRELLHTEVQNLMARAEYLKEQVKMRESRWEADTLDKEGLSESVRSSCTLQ
Sequence of RPS6KA5 KD2 (human) (O75582 whole entry, looked up): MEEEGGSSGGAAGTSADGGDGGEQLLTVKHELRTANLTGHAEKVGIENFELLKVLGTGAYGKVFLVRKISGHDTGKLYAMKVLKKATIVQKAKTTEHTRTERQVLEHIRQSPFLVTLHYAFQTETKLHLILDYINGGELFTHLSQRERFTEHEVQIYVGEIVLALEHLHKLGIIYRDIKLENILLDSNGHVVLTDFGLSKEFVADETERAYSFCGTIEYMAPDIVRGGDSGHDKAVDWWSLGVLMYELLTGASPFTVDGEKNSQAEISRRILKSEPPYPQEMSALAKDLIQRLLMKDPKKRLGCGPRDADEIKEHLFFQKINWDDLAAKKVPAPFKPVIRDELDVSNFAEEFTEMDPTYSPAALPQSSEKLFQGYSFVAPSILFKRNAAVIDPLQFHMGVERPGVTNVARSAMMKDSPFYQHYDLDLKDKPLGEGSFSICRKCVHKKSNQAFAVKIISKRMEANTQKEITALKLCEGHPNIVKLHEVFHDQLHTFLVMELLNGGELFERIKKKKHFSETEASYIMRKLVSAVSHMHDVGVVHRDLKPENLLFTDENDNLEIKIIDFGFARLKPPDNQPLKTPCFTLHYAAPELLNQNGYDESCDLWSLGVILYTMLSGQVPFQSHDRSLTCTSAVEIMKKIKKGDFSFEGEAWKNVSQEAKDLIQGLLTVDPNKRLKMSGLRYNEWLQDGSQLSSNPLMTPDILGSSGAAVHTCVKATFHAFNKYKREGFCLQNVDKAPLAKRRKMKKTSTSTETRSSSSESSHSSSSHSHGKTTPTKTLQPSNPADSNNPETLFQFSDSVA
Sequence of TYRO3 (human) (Q06418 whole entry, looked up): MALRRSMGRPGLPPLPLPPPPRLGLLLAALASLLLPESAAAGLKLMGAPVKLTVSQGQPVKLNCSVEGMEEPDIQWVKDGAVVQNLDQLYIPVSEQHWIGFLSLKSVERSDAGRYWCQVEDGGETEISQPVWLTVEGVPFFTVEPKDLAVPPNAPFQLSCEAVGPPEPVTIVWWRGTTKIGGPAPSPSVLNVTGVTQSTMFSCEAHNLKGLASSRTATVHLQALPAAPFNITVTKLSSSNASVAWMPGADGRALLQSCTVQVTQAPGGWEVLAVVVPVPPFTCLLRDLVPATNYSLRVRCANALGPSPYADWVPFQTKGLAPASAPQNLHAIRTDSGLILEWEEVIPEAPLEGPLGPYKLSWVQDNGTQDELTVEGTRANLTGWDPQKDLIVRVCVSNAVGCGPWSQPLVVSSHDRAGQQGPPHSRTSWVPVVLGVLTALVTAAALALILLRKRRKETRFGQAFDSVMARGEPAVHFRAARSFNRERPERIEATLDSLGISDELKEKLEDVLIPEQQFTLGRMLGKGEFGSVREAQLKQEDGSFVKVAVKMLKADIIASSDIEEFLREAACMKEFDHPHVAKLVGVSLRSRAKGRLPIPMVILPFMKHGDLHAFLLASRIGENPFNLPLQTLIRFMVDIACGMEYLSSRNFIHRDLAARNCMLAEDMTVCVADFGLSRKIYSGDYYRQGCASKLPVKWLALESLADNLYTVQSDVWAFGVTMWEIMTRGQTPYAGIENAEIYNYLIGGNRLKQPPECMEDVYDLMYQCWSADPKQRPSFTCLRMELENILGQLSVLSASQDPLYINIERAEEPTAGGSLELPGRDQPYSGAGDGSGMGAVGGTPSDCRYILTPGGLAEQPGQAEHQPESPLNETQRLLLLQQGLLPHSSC
Sequence of MAPKAPK2 (human) (P49137 whole entry, looked up): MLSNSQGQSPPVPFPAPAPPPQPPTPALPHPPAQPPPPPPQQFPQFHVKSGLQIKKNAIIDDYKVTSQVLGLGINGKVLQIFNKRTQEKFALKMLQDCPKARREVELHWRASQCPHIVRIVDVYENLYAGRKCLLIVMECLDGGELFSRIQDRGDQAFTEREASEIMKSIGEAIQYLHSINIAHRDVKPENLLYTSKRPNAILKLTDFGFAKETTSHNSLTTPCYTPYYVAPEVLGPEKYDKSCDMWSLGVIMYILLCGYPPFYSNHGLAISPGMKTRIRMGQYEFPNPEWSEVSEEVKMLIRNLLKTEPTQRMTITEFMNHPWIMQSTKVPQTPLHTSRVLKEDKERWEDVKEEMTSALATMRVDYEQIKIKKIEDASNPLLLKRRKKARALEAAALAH
Sequence of CSNK1A1 (human) (P48729 whole entry, looked up): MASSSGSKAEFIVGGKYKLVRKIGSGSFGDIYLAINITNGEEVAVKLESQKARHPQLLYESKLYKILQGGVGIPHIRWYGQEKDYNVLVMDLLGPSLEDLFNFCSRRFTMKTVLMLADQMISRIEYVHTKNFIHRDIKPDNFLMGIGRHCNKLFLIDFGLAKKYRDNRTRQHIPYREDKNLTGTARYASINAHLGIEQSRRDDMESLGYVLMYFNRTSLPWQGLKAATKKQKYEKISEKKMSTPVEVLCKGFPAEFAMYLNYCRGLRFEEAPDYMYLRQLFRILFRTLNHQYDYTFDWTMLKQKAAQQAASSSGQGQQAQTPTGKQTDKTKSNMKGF
Sequence of PRKACG (human) (P22612 whole entry, looked up): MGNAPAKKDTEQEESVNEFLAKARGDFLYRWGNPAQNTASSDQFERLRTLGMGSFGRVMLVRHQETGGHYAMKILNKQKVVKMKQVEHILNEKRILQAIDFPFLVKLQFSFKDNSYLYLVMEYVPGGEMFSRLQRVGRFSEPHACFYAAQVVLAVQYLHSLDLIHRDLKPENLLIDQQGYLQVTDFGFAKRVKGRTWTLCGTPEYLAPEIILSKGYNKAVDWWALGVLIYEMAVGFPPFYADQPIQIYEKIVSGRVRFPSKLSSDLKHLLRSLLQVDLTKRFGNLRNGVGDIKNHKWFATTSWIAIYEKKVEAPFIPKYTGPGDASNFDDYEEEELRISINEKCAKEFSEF

Structure (SMILES) | residual activity (MST1R (human)) | residual activity (TAOK1 (human)) | residual activity (AKT1 (human)) | residual activity (CDK6 CCND1 (human)) | residual activity (STK38 (human)) | residual activity (RPS6KA5 KD2 (human)) | residual activity (PRKG1 (human)) | residual activity (MELK (human)) | residual activity (PRKCB1 (human)) | residual activity (HIPK3 (human)) | residual activity (STK16 (human)) | residual activity (MYO3B (human)) | residual activity (PAK6 (human)) | residual activity (TLK2 (human)) | residual activity (PAK7 (human)) | residual activity (STK10 (human)) | residual activity (MAP3K8 (human)) | residual activity (CDK2 CCNE1 (human)) | residual activity (MAPK3 (human)) | residual activity (ULK3 (human)) | other results
CCCNC(=O)Nc1ccc(Oc2ncnc3cc(OC)c(OC)cc23)cc1Cl | 89.3% | 92.2% | 93% | 92.9% | 87.9% | 95.6% | 76.8% and 95.4% | 86.8% | 100% | 96.2% | 93.4% | 76.2% | 106% | 99.5% | 84.5% | 35% | 104% | 95.2% | 105% | 80.7% | residual activity (AURKC (human)): 71.6%; residual activity (ABL1 (human)): 89%; residual activity (MAPKAPK2 (human)): 101%; residual activity (PRKACG (human)): 106%; residual activity (NUAK2 (human)): 123%; residual activity (ERBB2 (human)): 116%; residual activity (OXSR1 (human)): 96.5%; residual activity (PRKX (human)): 100%; residual activity (CLK2 (human)): 89.5%; residual activity (STK33 (human)): 88.1%; residual activity (EPHA6 (human)): 77.7%; residual activity (TYRO3 (human)): 102%; residual activity (MAPK10 (human)): 100%; residual activity (EGFR (human)): 88.1%; residual activity (TNK2 (human)): 96.5%; residual activity (MAP2K2 (human)): 99.9%; residual activity (SIK2 (human)): 101%; residual activity (CSNK1A1 (human)): 98.9%
NC(=O)c1ccc(N(C(N)=O)c2c(F)cccc2F)nc1-c1ccc(F)cc1F | 90.1% | 96.2% | 84.7% | 95.1% | 101% | 92.8% | 88.1% and 95.7% | 87.1% | 86.1% | 98.4% | 100% | 99.2% | 103% | 95.7% | 96.4% | 93.8% | 94.3% | 93.1% | 95.2% | 101% | residual activity (AURKC (human)): 83.8%; residual activity (ABL1 (human)): 99.7%; residual activity (MAPKAPK2 (human)): 98.9%; residual activity (CSNK2A2 (human)): 109%; residual activity (PRKACG (human)): 109%; residual activity (NUAK2 (human)): 98.7%; residual activity (ERBB2 (human)): 106%; residual activity (OXSR1 (human)): 96.9%; residual activity (PRKX (human)): 123%; residual activity (CLK2 (human)): 86.9%; residual activity (STK33 (human)): 94%; residual activity (EPHA6 (human)): 95%; residual activity (TYRO3 (human)): 101%; residual activity (MAPK10 (human)): 98.4%; residual activity (PDGFRB (human)): 62.8%; residual activity (EGFR (human)): 92.7%; residual activity (TNK2 (human)): 96.1%; residual activity (MAP2K2 (human)): 92.3%; residual activity (SIK2 (human)): 95.1%
COc1cc2nccc(Oc3ccc(NC(=S)NC(=O)c4ccccc4C)cc3)c2cc1OC | 88.8% | 71.3% | 95.7% | 87.1% | 107% | 95.3% | 101% and 91.6% | 98.5% | 91.9% | 95.2% | 101% | 83.4% | 95.8% | 85.3% | 102% | 11.9% | 94.1% | 96.7% | 106% | 86.8% | residual activity (AURKC (human)): 30.2%; residual activity (ABL1 (human)): 50.6%; residual activity (MAPKAPK2 (human)): 98%; residual activity (CSNK2A2 (human)): 96.6%; residual activity (PRKACG (human)): 107%; residual activity (NUAK2 (human)): 106%; residual activity (ERBB2 (human)): 102%; residual activity (OXSR1 (human)): 106%; residual activity (PRKX (human)): 100%; residual activity (CLK2 (human)): 107%; residual activity (STK33 (human)): 94.6%; residual activity (EPHA6 (human)): 33%; residual activity (TYRO3 (human)): 92.2%; residual activity (MAPK10 (human)): 98.7%; residual activity (PDGFRB (human)): 26.7%; residual activity (EGFR (human)): 89.7%; residual activity (TNK2 (human)): 26.9%; residual activity (MAP2K2 (human)): 79.4%; residual activity (SIK2 (human)): 97.8%; residual activity (CSNK1A1 (human)): 96.3%
O=c1cc(N2CCNCC2)oc2c(-c3ccccc3)cccc12 | 96% | 90.8% | 103% | 94.6% | 94.3% | 99.1% | 100% and 102% | 94.5% | 91.6% | 116% | 97.4% | 97.5% | 102% | 94.8% | 104% | 94.3% | 95.2% | 91.6% | 119% | 101% | residual activity (AURKC (human)): 97.6%; residual activity (ABL1 (human)): 110%; residual activity (MAPKAPK2 (human)): 103%; residual activity (PRKACG (human)): 83.2%; residual activity (NUAK2 (human)): 89.2%; residual activity (ERBB2 (human)): 95.5%; residual activity (OXSR1 (human)): 85.6%; residual activity (PRKX (human)): 99%; residual activity (CLK2 (human)): 100%; residual activity (STK33 (human)): 86.1%; residual activity (EPHA6 (human)): 88.2%; residual activity (TYRO3 (human)): 107%; residual activity (MAPK10 (human)): 85%; residual activity (PDGFRB (human)): 101%; residual activity (EGFR (human)): 110%; residual activity (TNK2 (human)): 90.7%; residual activity (MAP2K2 (human)): 94%; residual activity (SIK2 (human)): 110%; residual activity (CSNK1A1 (human)): 104%
C#Cc1cccc(Nc2ncnc3cc(OCCOC)c(OCCOC)cc23)c1 | 93.6% | 98.3% | 93.7% | 98.7% | 101% | 96.8% | 85.6% and 93.5% | 88.6% | 92.4% | 102% | 98% | 84.4% | 104% | 85.9% | 97.3% | 20.3% | 91.8% | 96.5% | 101% | 105% | residual activity (PRKACG (human)): 108%; residual activity (NUAK2 (human)): 95.3%; residual activity (ERBB2 (human)): 52.8%; residual activity (OXSR1 (human)): 102%; residual activity (PRKX (human)): 111%; residual activity (CLK2 (human)): 93.4%; residual activity (STK33 (human)): 90.8%; residual activity (EPHA6 (human)): 40.4%; residual activity (MAP2K2 (human)): 105%; residual activity (CSNK1A1 (human)): 98.6%

Reference: the kinase profiling compilation of Christmann-Franck et al. (2016)
